Results on four compounds are retold here after paper PMC8626090, “A conserved neuropeptide system links head and body motor circuits to enable adaptive behavior” (eLife, 2021).

Where two headings read alike, the source gives them in different places. No end group written: not given here.

The target of one assay is T1, CKR-1 (Caenorhabditis elegans, UniProt P91487).
T1 sequence (P91487 1-421): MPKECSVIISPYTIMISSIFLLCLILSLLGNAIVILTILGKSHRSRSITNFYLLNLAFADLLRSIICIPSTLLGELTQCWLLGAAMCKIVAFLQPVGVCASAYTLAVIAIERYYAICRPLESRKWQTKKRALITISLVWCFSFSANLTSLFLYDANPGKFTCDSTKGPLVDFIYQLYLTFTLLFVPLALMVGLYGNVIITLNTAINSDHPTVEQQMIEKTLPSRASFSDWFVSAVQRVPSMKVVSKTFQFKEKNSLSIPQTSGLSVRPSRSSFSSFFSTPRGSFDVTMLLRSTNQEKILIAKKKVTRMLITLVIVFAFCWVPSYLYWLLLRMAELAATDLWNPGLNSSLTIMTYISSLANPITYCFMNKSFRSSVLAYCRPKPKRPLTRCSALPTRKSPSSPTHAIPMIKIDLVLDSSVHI
Briefly: GPCR activation assay, CKR-1 (aequorin bioluminescence calcium, CHO-K1 Gα16). The class given is cell-based. The note with it: for ratio of total calcium response: in vitro controls, CKR-1. How it is done: (§1) To obtain direct evidence for NLP-12 activation of CKR-1, we used an in vitro bioluminescence-based approach. CKR-1 was expressed in Chinese hamster ovarian (CHO) cells stably expressing the promiscuous G-protein alpha subunit Gα16 and a bioluminescent calcium indicator, aequorin ([Caers et al., 2014]). The NLP-12 precursor gives rise to two distinct mature peptides, NLP-12–1 and NLP-12–2.
(§2) The GPCR activation assay was performed as previously described ([Caers et al., 2014]; [Peymen et al., 2019]; [Van Sinay et al., 2017]). Briefly, CHO-K1 cells stably expressing the luminescent Ca^2+ indicator aequorin and the promiscuous Gα16 protein (ES-000-A24 cell line, PerkinElmer) were transiently transfected with ckr-1/pcDNA3.1, ckr-2/pcDNA3.1, or empty pcDNA3.1 vector. Cells were transfected with Lipofectamine LTX and Plus reagent (Invitrogen) at 60–80% confluency and grown overnight at 37°C. After 24 hr, they were shifted to 28°C overnight. On the day of the assay, transfected cells were collected in bovine serum albumin (BSA) medium (DMEM/F12 without phenol red with L-glutamine and 15 mM HEPES, Gibco, supplemented with 0.1% BSA), at a density of 5 million cells per ml, and loaded with 5 µM coelenterazine h (Invitrogen) for 4 hr at room temperature. Compound plates containing synthetic peptides in DMEM/BSA were placed in a MicroBeta LumiJet luminometer (PerkinElmer). After loading, the transfected cells were added at a density of 25,000 cells/well, and luminescence was measured for 30 s at a wavelength of 469 nm. After 30 s, 0.1% triton X-100 (Merck) was added to lyse the cells, resulting in a maximal Ca^2+ response that was measured for 30 s. To constitute concentration-response curves of NLP-12 peptides, peptide concentrations ranging from 1 pM to 10 µM were tested in triplicate on 2 independent days.

The target of a further assay is CKR-2 (Caenorhabditis elegans, UniProt M1Z894). Briefly: GPCR activation assay, CKR-2 (aequorin bioluminescence calcium, CHO-K1 Gα16). The assay is classed as cell-based. Particulars: for ratio of total calcium response: in vitro controls, CKR-2. How it is done:
as §1, §2

The test system of assay [1] is CHO cells transfected with an empty pcDNA3.1 vector. Briefly: GPCR activation assay, control cells transfected with empty pcDNA3.1 vector. The class given is cell-based, Chinese hamster. The note with it: in vitro controls. How it is done:
as §1, §2

For assay [2], the system named is SMD neurons, Caenorhabditis elegans. The note with it: in vivo.
[3] abbreviates: CHO-K1 cells, aequorin/Gα16, 1 pM to 10 µM, triplicate on 2 independent days (n=6), luminescence 469 nm, 30 s, read-out: EC50 (CKR-1 activation, calcium response).
[4] abbreviates: concentration-response curve fit, n=6, read-out: 95% confidence interval (EC50, CKR-1 activation).
Setting [5] is: read-out: 95% confidence interval (EC50, CKR-2 activation), concentration-response curve fit, n=6.
Setting [6] is: read-out: EC50 (CKR-2 activation, calcium response), CHO-K1 cells, aequorin/Gα16, 1 pM to 10 µM, triplicate on 2 independent days (n=6), luminescence 469 nm, 30 s.

Chain of CKR-2 (M1Z894 entry or part of it): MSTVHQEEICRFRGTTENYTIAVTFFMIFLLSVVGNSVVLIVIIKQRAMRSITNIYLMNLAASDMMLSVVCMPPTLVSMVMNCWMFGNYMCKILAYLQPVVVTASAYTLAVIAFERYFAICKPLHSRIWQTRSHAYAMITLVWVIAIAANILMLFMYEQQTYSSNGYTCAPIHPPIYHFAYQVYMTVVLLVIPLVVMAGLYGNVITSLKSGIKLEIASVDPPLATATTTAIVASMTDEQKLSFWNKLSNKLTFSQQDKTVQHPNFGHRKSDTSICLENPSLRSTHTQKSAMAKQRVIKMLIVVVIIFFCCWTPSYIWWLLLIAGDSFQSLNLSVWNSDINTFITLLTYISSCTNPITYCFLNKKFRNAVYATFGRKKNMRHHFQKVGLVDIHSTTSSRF

On to `Nc1ncnc2c1ncn2[C@@H]1O[C@H](COP(=O)(O)OP(=O)(O)OP(=O)(O)O)[C@@H](O)[C@H]1O` [ATP], for which the “ratio of total calcium response” value on CKR-1 (replicate 1) is 0.6901; on CKR-1 (replicate 2), 0.479; on CKR-1 (replicate 3), 0.5419; at CKR-1 (replicate 4), 0.7243; on CKR-1 (replicate 5), 0.7237; on CKR-2 (replicate 1), 0.7753. Also, the “ratio of total calcium response” value on CKR-2 (replicate 2) is given as 0.8315; at CKR-2 (replicate 3) it was 0.845; on CKR-2 (replicate 4), 0.8913; at CKR-2 (replicate 5) it was 0.8945; in assay [1] (replicate 1), 0.9381; in assay [1] (replicate 2), 0.6003. The “ratio of total calcium response” value in assay [1] (replicate 3) is listed as 0.6268; in assay [1] (replicate 4), 0.814; in assay [1] (replicate 5), 0.8225.

With `NCCc1c[nH]cn1` [histamine], in assay [2], the “reorientations during food searching upon SMD silencing” value is “reduced reorientations with SMD silencing in transgenics”.

The term EC50 denotes the midpoint of the concentration-response curve. For DGYRPLQF-NH2 [NLP-12-2, DGYRPLQFamide], the EC50 is 1.9 nM at CKR-1 (setting [3]), 0.93 to 3.77 nM at CKR-1 (setting [4]), 6.43 to 16.7 nM on CKR-2 (setting [5]) and 10.2 nM at CKR-2 (setting [6]).

Turning to DYRPLQF-NH2 [NLP-12-1, DYRPLQFamide], the EC50 at CKR-1 (setting [3]) is 3.5 nM; at CKR-1 (setting [4]), 1.79 to 7.07 nM; at CKR-2 (setting [5]), 5.16 to 12.5 nM; at CKR-2 (setting [6]), 8 nM.
